The values that follow come from patent publication US20130137767A1, “Methods and Compositions for Treating Arthritis with Docosahexaenoic Acid” (DSM IP ASSETS B.V., priority 2010, published 2013).

Assay [1] deals with Collagen-Induced Arthritis (CIA). In words: Collagen-Induced Arthritis, ethyl esters (CIA-EE, Example 1): clinical arthritis severity and incidence. The format is in vivo, Male DBA/1O1aHsd mice. As to conditions: for arthritis severity score / arthritis severity score as area under the curve (AUC): days 18-45; for arthritis severity score as area under the curve (AUC): FIG. 2. The text has this:
The anti-arthritic activity of DHA, DPAn6, DHA/DPAn6 (DHA S-oil ratio) and DHA/EPA (fish oil ratio) ethyl esters (EE) in a chronic mouse model of inflammation, Collagen-Induced Arthritis (CIA), was studied.
Male DBA/1O1aHsd mice (3.5-4 weeks of age) were randomized by weight and enrolled in the study after a three day quarantine in which animals were fed the AlN-93G diet with a modified base fat: 1 part flax seed oil (flax), 9 parts hydrogenated coconut oil (HCOC) and 21 parts high-oleic safflower oil (HO-SAFF). 15 animals were enrolled per study group, with the exception of the No Disease control that had 4 animals. Study groups consisted of:
The appropriate ethyl esters were blended into the base diet to provide approximately 2500 and 5000 mg/kg polyunsaturated fatty acid (PUFA) per day. The human equivalent doses (HED) were approximately 12 g/day and 22 g/day, respectively. The 2500 mg/kg EE diets contained the following fat blend: 1 part flax, 12 parts HCOC and 23 parts HO-SAFF. The 5000 mg/kg EE diets contained a fat blend consisting of: 1 part flax, 5 parts HCOC and 20 parts HO-SAFF. All study diets provided a total of 7% fat. Animals were fed study diets for approximately 30 days prior to the first collagen injection at day 0 and remained on the diets until study termination (day 45). Animals in the No Disease control and Dexamethasone groups were fed the diet containing OA-EE. Following a second collagen injection on day 21, arthritis severity was scored daily. Blood samples were collected at day 21 and day 45. Joints, 6 per an animal, were collected for histology and pathology on day 45.
Data was analyzed and compared by one-way ANOVA using the Bonferroni post-test to compare treatment groups to respective placebo control and to make comparisons between treatment groups (GraphPad, Prism, Version 4.0). Effects were considered to be statistically significant at p<0.05.
Arthritis severity was assessed from day 18 to 45; a score of 0 represented an animal devoid of clinical arthritis symptoms and a score of 5 represented advanced clinical arthritis. Scores from 0-5 (most severe) were assigned to each digit on the fore and hind limbs based on erythema, swelling and mobility and the mean arthritis severity per animal was determined.
The incidence of disease was reduced in animals treated with DHA-EE (FIG. 3A/B). A clinical arthritis score greater than 0 was considered diseased. The incidence of disease at day 45 was 13% in animals treated with 2500 mg/kg DHA-EE, as compared to 100% disease incidence in OA-EE (placebo) control animals.

Assay [2] shares this test system. The assay can be described thus: CIA EE vs. TG (Example 2): paw, knee and six-joint histopathology. The format is in vivo, Male DBA/1O1aHsd mice. As to conditions: day 45. How it is done:
Male DBA/1O1aHsd mice were enrolled, quarantined, and feed study diets following the protocols described in Example 1 (CIA-EE Study). EE and TG oils were blended into the base diet to provide 2500 mg/kg PUFA per day (HED approximately 12 g/day). A single dose of PUFA per day (HED approximately 5 g/day). The 1000 mg/kg DHA-EE dose was equivalent to the amount of DHA administered in the DHA/EPA-EE blend. The fat blend the 2500 mg/kg EE diets consisted of approximately: 1 part flax, 12 parts HCOC and 23 parts HO-SAFF; 1000 mg/kg EE diet: 1 part flax, 12 parts HCOC and 32 parts HO-SAFF; 2500 mg/kg DHASCO® oil diet: 1 part flax, 8 parts HCOC, 17 parts HO-SAFF and 15 parts soybean oil; 2500 mg/kg DHA-S oil diet: 1 part flax, 5 parts HCOC, 16 parts HO-SAFF and 6 parts soybean oil. 2500 mg/kg DHA/EPA (Nordic Naturals fish oil) diet: 1 part flax, 21 parts HCOC, 18 parts HO-SAFF and 13 parts soybean oil. The monounsaturate control animals received a fat blend of 1 part flax, 7 parts HCOC and 25 parts HO-SAFF. All study diets provided a total of 7% fat. Animals in the No Disease control and Dexamethasone groups were fed the diet containing OA-EE. Mice received collagen injections on day 0 and day 21, as described previously. Blood samples were collected at day 21 and day 45. At day 45, joints were collected for histology and pathology. Placebo-treated diseased animals had histopathology changes, consistent with those seen in type II collagen induced arthritis, in most joints, with scores ranging from normal to severe. Microscopic alteration included infiltration of synovium and periarticular tissue with neutrophils and mononuclear inflammatory cells (inflammation), marginal zone pannus and bone resorption and cartilage damage (proteoglycan loss, chondrocyte death and collagen matrix destruction). Four-paw, knee and joint parameters were assigned a quantitative score 0=normal, 1=minimal, 2=mild, 3=moderate, 4=marked, 5=severe and a total score was determined per animal.

The structures appear in SMILES notation.

`CC/C=C\C/C=C\C/C=C\C/C=C\C/C=C\C/C=C\CCC(=O)OCC` [DHA-EE]: the arthritis severity score result in assay [1] (2500 mg/kg in diet, FIG. 1A) is “reduced arthritis severity”; in assay [1] (5000 mg/kg in diet, FIG. 1B), “reduced arthritis severity”. For the same compound, the “arthritis severity score as area under the curve (AUC)” value was “significantly reduced arthritis severity” in assay [1] (2500 mg/kg, vs 2500 mg/kg OA-EE (placebo) control) and “significantly reduced arthritis severity” in assay [1] (5000 mg/kg, vs 5000 mg/kg OA-EE (placebo) control). In addition, in assay [1] (5000 mg/kg), the “arthritis severity, comparison between treatment groups” value is “more potent than DHA/EPA-EE”. In addition, the “incidence of disease (clinical arthritis score greater than 0)” value in assay [1] (day 45, 2500 mg/kg, FIG. 3A) amounted to 13%. Further, the “arthritis severity, comparison with dexamethasone” value in assay [1] (dose not stated in sentence (2500 and 5000 mg/kg tested), dexamethasone 0.1 mg/kg) is given as “as effective as dexamethasone”. The knee histopathology parameters entry in assay [2] (1000 mg/kg) is “not significantly affected”. Further, in assay [2] (1000 mg/kg), the paw histopathology parameters result is “not significantly affected”. Further, the six-joint histopathology parameters result is “not significantly affected” in assay [2] (1000 mg/kg) and “significantly reduced towards normal” in assay [2] (2500 mg/kg PUFA, FIG. 10). The “paw histopathology parameters (inflammation, pannus, cartilage damage, bone damage)” value in assay [2] (2500 mg/kg PUFA, vs placebo control, FIG. 10) is “reduced”.
